Tests used:
[1] = pterin suspensions tested by the NIH; cited from earlier work
[2] = system: C3H/HeN-MTV+ mammary gland adenocarcinoma; conditions: oral gavage 3/16 mL of 5 mM pterin in 1.25 mM CaCl2 daily (about 7 mg/kg/day) for 8 days; Figure One
Protocol: LaRusso, P., et al. Cancer Research 50: 4900-4905 (1990). T/C is the ratio between the median tumor volume (MTV) of the Test group of tumor producing mice and the MTV of the Control group of mice. […] The median tumor volume of each group is determined, including zeros (remissions), for each day of measurement. The T/C value in percentage is an indication of antitumor effectiveness (Figure Two). A T/C equal to or less than 42% is considered significant antitumor activity. A T/C value <10% is indicative of a high degree of antitumor activity and is the level used by the National Cancer Institute to justify systematic toxicology studies preliminary to Investigational New Drug (IND) filing (termed DN-2 level activity).
The A-line at 42% represents the level of activity established by the N.C.I. for “significant antitumor activity”. The B-line at about 10% depicts the level representing a “high degree of antitumor activity”.

[3] = system: MDA MB 231 breast cancer cells; assay: Human breast tumor xenograft in athymic nude mice, oral gavage; type: in vivo; conditions: oral gavage once daily for 14 days, 3/16 mL, Figure Three
Excerpt: This study evaluated the activity of the test agent, CaPterin, on human mammary tumor xenografts in mice. Athymic nude (nu/nu) female mice, age 3-4 weeks, were purchased from Harlan Spreague Dawley, Inc. (Indianapolis, Ind.). The animals were housed four per cage in sterile filter-topped cages in ventilated cage racks and Microisolator™ cages (LabProducts, DE). Upon arrival, the mice were quarantined for at least four working days before use. The animal facility is AAALAC-accredited. Temperature is maintained at 72+/−5° F. and relative humidity at 35-70%; a 12-hour light/dark cycle was used. The mice were fed sterile, autoclavable, certified Purina rodent chow ad libitum. […] The water supply is analyzed quarterly for metals and trace contaminants. […]
Tumor dimensions and body weights were measured 4 times weekly for approximately three weeks from the start of treatment. Tumors were measured in three planes using Vernier calipers, and tumor volume (V) was calculated as follows: V=pi(x x y x z)/6, where x, y, and z are the tumor measurements minus skin thickness. The mean tumor volume was calculated at each time point. For each group, the mean of the ratio V/Vo was plotted as a function of time after treatment, and tumor growth delay calculated. Treatment toxicity was assessed from reductions in body weight after treatment. […]

[4] = Treatment toxicity (body weight reduction) in athymic nude mice; type: in vivo; conditions: oral gavage once daily for 14 days; assessed from reductions in body weight
Protocol: MDA MB 231 breast cancer cells (5,000,000 cells in 100 uL of phosphate buffered saline) were injected subcutaneously into the right leg of female immunodeficient athymic nude mice. When the tumors reached a mean diameter of 3-5 mm, the mice were divided into two groups (8 mice per treatment group), and the treatment begun. The mice were treated by oral gavage once daily for 14 days with either 3/16 mL of the vehicle control (water) or with 3/16 mL of 5 mM CaCl2 .Pterin from Example 2.
Tumor dimensions and body weights were measured 4 times weekly for approximately three weeks from the start of treatment. Tumors were measured in three planes using Vernier calipers, and tumor volume (V) was calculated as follows: V=pi(x x y x z)/6, where x, y, and z are the tumor measurements minus skin thickness. The mean tumor volume was calculated at each time point. For each group, the mean of the ratio V/Vo was plotted as a function of time after treatment, and tumor growth delay calculated. Treatment toxicity was assessed from reductions in body weight after treatment. The mice were sacrificed if their tumor volumes reached greater than or equal to 1600 mm^3 or weight loss exceeded 25%.

Nc1nc2nccnc2c(=O)[nH]1 [Pterin]
antineoplastic activity [1]: no significant antineoplastic activity

CaCl2(pterin)4
median tumor volume (MTV) relative to controls [2]: strongly regresses tumor growth relative to controls

CaCl2(pterin)4 [CaPterin]
mean growth response as relative tumor volume (V/Vo) relative to controls [3]: strongly regresses tumor growth relative to controls
toxicity throughout the course of treatment [4]: no evidence of toxicity

Source: patent US6358953B1, “Pterin antineoplastic agents” (priority 1998, dated 2002)
